Consider two compounds from US20030130297A1, “Oral administration of 6-hydroxy-oxymorphone for use as an analgesic” (Endo Pharmaceuticals, Inc., priority 2001, published 2003).

Structures are written as SMILES. Some results are limits rather than exact numbers.

The subject of one data set is Opiate, Delta 1. The data set can be described thus: Opiate Delta 1 receptor binding assay.
The target of data set [1] is Opiate, Delta 2 (Human Recombinant) (Homo sapiens, UniProt P41143). The data set can be described thus: Opiate Delta 2 receptor binding assay.
Sequence of Opiate, Delta 2 (Human Recombinant) (P41143 whole entry): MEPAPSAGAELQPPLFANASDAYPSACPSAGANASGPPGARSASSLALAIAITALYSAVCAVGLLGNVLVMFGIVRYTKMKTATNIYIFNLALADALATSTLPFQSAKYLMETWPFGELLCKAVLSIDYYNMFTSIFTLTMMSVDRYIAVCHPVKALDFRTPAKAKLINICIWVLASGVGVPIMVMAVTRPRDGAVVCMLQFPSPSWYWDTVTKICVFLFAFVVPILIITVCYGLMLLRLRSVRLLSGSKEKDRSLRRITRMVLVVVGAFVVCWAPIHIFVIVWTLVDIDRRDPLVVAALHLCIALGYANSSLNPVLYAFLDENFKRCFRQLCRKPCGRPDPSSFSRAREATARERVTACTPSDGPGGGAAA
Data set [2] concerns the target Opiate, Kappa (Human Recombinant (Homo sapiens, UniProt P41145)). The experiment in a line: Opiate Kappa receptor binding assay.
Data set [3] concerns the target Opiate, Mu (Human Recombinant) (Homo sapiens, UniProt P35372). The experiment in a line: Opiate Mu receptor binding assay.
The nature of data set [4]: Pharmacokinetic studies: blood plasma levels and pain relief over 12 hours after administration of oxymorphone. The format is in vivo. Particulars: for Time at which blood plasma levels peak: after administration of oxymorphone. How it is done: In two separate studies, blood plasma levels and indications of pain relief were recorded over a 12 hour period after.
After this time, oxymorphone levels again drop and eventually fall to levels near the earlier plateau.
After the initial peak, however, a more or less steady decline in the 6-hydroxy oxymorphones plasma levels is observed.
The amount administered will be dependent upon normal criteria such as patient weight, intensity of pain, and other factors. Based on the pharmacokinetic studies, blood plasma levels around at least 0.2 ng/mL will provide some analgesia. The upper plasma level limit will be ultimately established by safety concerns. […] Subsequent doses may be required to maintain these blood levels.

Sequence of Opiate, Mu (Human Recombinant) (P35372 whole entry): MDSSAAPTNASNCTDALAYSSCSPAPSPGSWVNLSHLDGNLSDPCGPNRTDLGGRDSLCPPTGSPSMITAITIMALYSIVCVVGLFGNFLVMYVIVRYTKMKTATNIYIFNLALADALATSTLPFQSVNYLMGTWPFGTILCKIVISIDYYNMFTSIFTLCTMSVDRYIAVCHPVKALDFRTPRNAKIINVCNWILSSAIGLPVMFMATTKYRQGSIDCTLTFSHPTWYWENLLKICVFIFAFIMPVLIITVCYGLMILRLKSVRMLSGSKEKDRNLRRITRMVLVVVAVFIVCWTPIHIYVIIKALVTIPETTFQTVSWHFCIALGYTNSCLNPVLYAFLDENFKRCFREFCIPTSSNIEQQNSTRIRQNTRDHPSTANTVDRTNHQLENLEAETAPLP
Sequence of Opiate, Kappa (Human Recombinant (P41145 whole entry): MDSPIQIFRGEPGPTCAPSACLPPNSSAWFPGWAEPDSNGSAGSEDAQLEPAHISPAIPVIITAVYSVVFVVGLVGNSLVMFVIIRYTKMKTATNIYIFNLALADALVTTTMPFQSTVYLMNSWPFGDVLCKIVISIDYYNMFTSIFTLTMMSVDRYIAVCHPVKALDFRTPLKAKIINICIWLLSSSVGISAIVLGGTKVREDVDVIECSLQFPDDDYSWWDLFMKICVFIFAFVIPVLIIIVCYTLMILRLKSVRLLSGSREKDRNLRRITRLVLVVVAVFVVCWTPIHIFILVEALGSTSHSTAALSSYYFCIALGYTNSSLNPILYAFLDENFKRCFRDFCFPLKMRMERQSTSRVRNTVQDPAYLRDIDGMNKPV

Regarding `CN1CC[C@]23c4c5ccc(O)c4O[C@H]2C(O)CC[C@@]3(O)[C@H]1C5` (some centres unmarked) [6-HYDROXY OXYMORPHONE, 6-hydroxy oxymorphone], the “Assay report, binding, Opiate Delta 1” value is −4.12% with Opiate, Delta 1 (10 nm (1.0 E−8)) and 90.48% in the data set with Opiate, Delta 1 (10 μm (1.0 E−5)). Further, the “Assay report, binding, Opiate Delta 2” value in data set [1] (10 nm (1.0 E−8)) stood at 7.19%; in data set [1] (10 μm (1.0 E−5)), 55.45%. For the same compound, the “Assay report, binding, Opiate Kappa” value in data set [2] (10 nm (1.0 E−8)) is 2.45%; in data set [2] (10 μm (1.0 E−5)), 62.47%. Moreover, the “Assay report, binding, Opiate Mu” value in data set [3] (10 nm (1.0 E−8)) is given as 63.16%; in data set [3] (10 μm (1.0 E−5)) it was 99.91%. The “Time at which blood plasma levels peak” value in data set [4] is not above 2 h. Moreover, the “Blood plasma level that provides some analgesia” value in data set [4] (based on the pharmacokinetic studies) was “at least 0.2 ng/mL”.

`CN1CC[C@]23c4c5ccc(O)c4O[C@H]2C(=O)CC[C@@]3(O)[C@H]1C5` [OXYMORPHONE, oxymorphone]: the “Assay report, binding, Opiate Delta 1” value in the data set with Opiate, Delta 1 (10 nm (1.0 E−8)) was −18.26%; with Opiate, Delta 1 (10 μm (1.0 E−5)), 89.03%. Besides, the “Time at which blood plasma levels peak” value in data set [4] is not above 2 h. For the same compound, the “Time at which the blood plasma level spikes again” value in data set [4] (from administration of oxymorphone) was in the range of 4 to 6 h.
